According to PMC11852235, “Discovery of Effective Inhibitors Against Phosphodiesterase 9, a Potential Therapeutic Target of Alzheimer’s Disease with Antioxidant Capacities” (Antioxidants, 2025):
“And” between values parts separate entries of the source, which are not always exact repeats. Equal values may be shown once. Read-outs that look alike come from different tables or passages of the source.

Experiments:
[1] = target: T1, PDE9 (catalytic domain of PDE9A2) (Homo sapiens, UniProt O76083); assay: Enzymatic assay against PDE9 (3H-cGMP hydrolysis, scintillation counting); format: biochemical; conditions: for inhibition at 0.01 µM: at a concentration of 0.01 μM
T1 construct: PDE9 recombinant catalytic domain (amino acid 181–506); made in house; host or cells: E. coli BL21 (Codonplus)
T1 sequence (O76083 241-566): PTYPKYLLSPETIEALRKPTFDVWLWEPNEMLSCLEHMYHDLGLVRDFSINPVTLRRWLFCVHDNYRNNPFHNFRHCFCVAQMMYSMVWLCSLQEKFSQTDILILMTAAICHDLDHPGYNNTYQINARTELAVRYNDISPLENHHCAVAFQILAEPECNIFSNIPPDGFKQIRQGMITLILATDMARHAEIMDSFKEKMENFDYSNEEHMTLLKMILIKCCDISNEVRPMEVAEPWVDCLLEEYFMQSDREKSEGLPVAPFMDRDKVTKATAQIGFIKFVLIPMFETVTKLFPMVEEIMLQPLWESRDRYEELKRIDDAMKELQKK
Method: In brief, E. coli strain BL21 (Codonplus), which carrying with recombinant pET-PDE9A2 plasmid, was grown in LB medium (containing 100 μg/mL ampicillin and 0.4% glucose) at 37 °C until an OD600 achieved 0.6–0.8. Then, the temperature was turned down to 15 °C, and 0.1 mM iso-propyl-b-D-thiogalactopyranoside was added to LB medium to induce the expression of PDE9A2 protein. Bacteria were induced for 20 h and collected for purified PDE9A2 recombinant protein by a Ni-NTA column (Qiagen, Venlo, The Netherlands).
As for the enzymatic assays, ^3H-cGMP (20,000–30,000 cpm, GE Healthcare), the substrate for enzymatic assays against PDE9A2, were diluted in an assay buffer (containing 50 mM Tris-HCl (pH 8.0), 10 mM MgCl2, and 1 mM DTT). And then, the substrate ^3H-cGMP, catalytic domain of PDE9A2, and different concentrations of tested compounds were incubated at room temperature for 15 min. To terminate the reaction, 0.2 M ZnSO4 and 0.2 N Ba(OH)2 were added to the mixture, leaving unreacted ^3H-cGMP in the supernatant. […] Each compound was measured at a minimum of eight concentrations for the IC50 calculation and repeated at least three times.
4.Enzymatic assays against PDE9
The assay buffer contains 50 mM Tris-HCl (pH 8.0), 10 mM MgCl2 or 4 mM MnCl2, 1 mM DTT, and 10-20 nM 3H-cGMP (15000−30000 cpm/assay, CPM control). The reaction was carried out at room temperature for 15 min and then terminated by addition of 0.2 M ZnSO4. The reaction product 3H-GMP was precipitated out by […], whereas unreacted 3H-cGMP remained in the supernatant. The radioactivity in the supernatant was measured in 2.5 […]
(CPMenzyme). For the measurement of IC50 of inhibitors, at least seven concentrations of inhibitors were used in the presence of 3H-cGMP. The enzyme concentration in a range of 10− 100 ng/mL, which hydrolyzed 50- 70% of the substrate, was chosen for each inhibitory assay. The radioactivity was recorded as CPMinhibitor. The IC50 values for PDE9 were calculated using a nonlinear regression analysis.
Inhibition = […] × 100%

[2] = Antioxidant activity, ORAC-FL method; conditions: Trolox as standard
Method: The modified Oxygen Radical Absorbance Capacity Fluorescein (ORAC-FL) method was used for antioxidant activity test. In brief, the mixture of test compounds (20 μL) and fluorescein (120 μL, final concentration of 150 nM) was added into a black 96-well plate and incubated for 15 min at 37 °C. Then, 60 μL of 2,2′-azobis(2-amidinopropane) dihydrochloride (AAPH) solution (12 mM) was added rapidly to induce the reaction. The fluorescence with an excitation wavelength of 485 nm and emission at 535 nm was measured in Spectrafluor Plus plate reader (Tecan, Crailsheim, Germany) every minute for 4 h. Integration of the area under the curve (AUC) was […] 1 to 8 μM Trolox was used as a standard. Each compound was tested at 1–10 μM at least in three independent assays. The ORAC-FL values of each compound were calculated according to Equation (1) and expressed as Trolox equivalents.(1) ORAC-FL value=AUCsample−AUCblank/AUCTrolox−AUCblank×ConcentrationTrolox/Concentrationsample

[3] = 0.25 h, read-out: Inhibition ratio against PDE9
[4] = 0.25 h, at a concentration of 0.1 μM, read-out: Inhibition ratio against PDE9
[5] = 6.25 nM, read-out: Inhibition (PDE9 dose-response, single runs)
[6] = 25 nM, read-out: Inhibition (PDE9 dose-response, single runs)
[7] = 50 nM, read-out: Inhibition (PDE9 dose-response, single runs)
[8] = 100 nM, read-out: Inhibition (PDE9 dose-response, single runs)
[9] = 200 nM, read-out: Inhibition (PDE9 dose-response, single runs)
[10] = 400 nM, read-out: Inhibition (PDE9 dose-response, single runs)
[11] = 800 nM, read-out: Inhibition (PDE9 dose-response, single runs)
[12] = 1600 nM, read-out: Inhibition (PDE9 dose-response, single runs)

SMILES	inhibition at 0.01 µM [1, 3]	inhibition at 0.1 µM [1, 4]	IC50 [1]	Inhibition (PDE9 dose-response, single runs) ([1]; 6.25 nM, 0.00625 µM)	Inhibition (PDE9 dose-response, single runs) ([1]; 12.5 nM, 0.0125 µM)	Inhibition (PDE9 dose-response, single runs) ([1]; 25 nM, 0.025 µM)	Inhibition (PDE9 dose-response, single runs) ([1]; 50 nM, 0.05 µM)	Inhibition (PDE9 dose-response, single runs) ([1]; 100 nM, 0.1 µM)	inhibition at 0.1 µM [1, 8]	Inhibition (PDE9 dose-response, single runs) ([1]; 200 nM, 0.2 µM)	inhibition at 0.2 µM [1, 9]	Inhibition (PDE9 dose-response, single runs) ([1]; 400 nM, 0.4 µM)	inhibition at 0.4 µM [1, 10]	Inhibition (PDE9 dose-response, single runs) ([1]; 800 nM, 0.8 µM)	inhibition at 0.8 µM [1, 11]	Inhibition (PDE9 dose-response, single runs) ([1]; 1600 nM, 1.6 µM)	inhibition at 1.6 µM [1, 12]	ORAC [2]	further results
CC(Cc1c[nH]c2ccccc12)Nc1nc2c(cnn2C2CCCC2)c(=O)[nH]1 (stereo not shown) [Compound 17a, 6-((1-(1H-indol-3-yl)propan-2-yl)amino)-1-cyclopentyl-1,5-dihydro-4H-pyrazolo[3,4-d]pyrimidin-4-one]	68%	78%																0.37 ± 0.04 μmol of Trolox equiv/μmol tested compound	
O=c1[nH]c(NCCc2c[nH]c3ccc(O)cc23)nc2c1cnn2C1CCCC1 [Compound 17b, 1-cyclopentyl-6-((2-(5-hydroxy-1H-indol-3-yl)ethyl)amino)-1,5-dihydro-4H-pyrazolo[3,4-d]pyrimidin-4-one]	16%		91.1 nM and 91 nM	9.16%	9.23% and 4.22%	21.21%	34.04%	49.42%	55.3%	66.06%	67.7%	76.31%	82.6%	86.82%	90.6%	94.94%	95.1%		inhibition at 0.00625 µM [1, 5]: 6.08%; inhibition at 0.025 µM [1, 6]: 24.1%; inhibition at 0.05 µM [1, 7]: 36.3%
COc1ccc2[nH]cc(CC(C)Nc3nc4c(cnn4C4CCCC4)c(=O)[nH]3)c2c1 (stereo not shown) [Compound 17c, 1-cyclopentyl-6-((1-(5-methoxy-1H-indol-3-yl)propan-2-yl)amino)-1,5-dihydro-4H-pyrazolo[3,4-d]pyrimidin-4-one]	84%		1.8 nM																
COc1ccc2[nH]cc(CC(C)Nc3nc4c(cnn4C4CCOCC4)c(=O)[nH]3)c2c1 (stereo not shown) [Compound 17d, 6-((1-(5-methoxy-1H-indol-3-yl)propan-2-yl)amino)-1-(tetrahydro-2H-pyran-4-yl)-1,5-dihydro-4H-pyrazolo[3,4-d]pyrimidin-4-one]	13%		89 nM	13.00%	26.71%	28.77%	37.79%	60.91%	61.6%	75.64%	77.6%	87.67%	90.5%	94.30%	96.4%	97.54%	108%		inhibition at 0.00625 µM [1, 5]: 13.8%; inhibition at 0.0125 µM ([1]; 12.5 nM, read-out: Inhibition (PDE9 dose-response, single runs)): 34.7%; inhibition at 0.025 µM [1, 6]: 26.4%; inhibition at 0.05 µM [1, 7]: 43.8%
CC(CCc1c[nH]c2ccccc12)Nc1nc2c(cnn2C2CCCC2)c(=O)[nH]1 (stereo not shown) [Compound 17e, 6-((4-(1H-indol-3-yl)butan-2-yl)amino)-1-cyclopentyl-1,5-dihydro-4H-pyrazolo[3,4-d]pyrimidin-4-one]	67%	83%																0.33 ± 0.002 μmol of Trolox equiv/μmol tested compound	
CC(CC1CNc2ccccc21)Nc1nc2c(cnn2C2CCCC2)c(=O)[nH]1 (stereo not shown) [Compound 17f, 1-cyclopentyl-6-((1-(indolin-3-yl)propan-2-yl)amino)-1,5-dihydro-4H-pyrazolo[3,4-d]pyrimidin-4-one]	59%	67%																0.66 ± 0.04 μmol of Trolox equiv/μmol tested compound	

Further lines, with some results ahead:

inhibition at 0.01 µM [1, 3]	inhibition at 0.1 µM [1, 4]	IC50 [1]	Inhibition (PDE9 dose-response, single runs) ([1]; 6.25 nM, 0.00625 µM)	Inhibition (PDE9 dose-response, single runs) ([1]; 12.5 nM, 0.0125 µM)	Inhibition (PDE9 dose-response, single runs) ([1]; 25 nM, 0.025 µM)	Inhibition (PDE9 dose-response, single runs) ([1]; 50 nM, 0.05 µM)	Inhibition (PDE9 dose-response, single runs) ([1]; 100 nM, 0.1 µM)	inhibition at 0.1 µM [1, 8]	Inhibition (PDE9 dose-response, single runs) ([1]; 200 nM, 0.2 µM)	inhibition at 0.2 µM [1, 9]	Inhibition (PDE9 dose-response, single runs) ([1]; 400 nM, 0.4 µM)	inhibition at 0.4 µM [1, 10]	Inhibition (PDE9 dose-response, single runs) ([1]; 800 nM, 0.8 µM)	inhibition at 0.8 µM [1, 11]	Inhibition (PDE9 dose-response, single runs) ([1]; 1600 nM, 1.6 µM)	inhibition at 1.6 µM [1, 12]	SMILES	ORAC [2]	further results
	< 30%	194 nM	-0.81% and -1.99%	4.63% and -3.63%	-0.82% and 5.95%	-1.13% and 3.15%	16.13%	9.05%	51.73%	42.9%	69.38%	75.3%	80.02%	90.6%	87.34%	90.2%	COc1ccc2[nH]cc(CN[C@H](C)c3nc4c(cnn4C4CCCC4)c(=O)[nH]3)c2c1 [Compound 18c, (R)-1-cyclopentyl-6-(1-(((5-methoxy-1H-indol-3-yl)methyl)amino)ethyl)-1,5-dihydro-4H-pyrazolo[3,4-d]pyrimidin-4-one]		
		214 nM															COc1ccc2c(c1)c(CN[C@H](C)c1nc3c(cnn3C3CCCC3)c(=O)[nH]1)cn2C [Compound 18d, (R)-1-cyclopentyl-6-(1-(((5-methoxy-1-methyl-1H-indol-3-yl)methyl)amino)ethyl)-1,5-dihydro-4H-pyrazolo[3,4-d]pyrimidin-4-one]		Inhibition (PDE9 dose-response, single runs) ([1]; 6.4875 nM, 0.0064875 µM): 4.86% and 1.81%; Inhibition (PDE9 dose-response, single runs) ([1]; 12.975 nM, 0.012975 µM): 9.60%; inhibition at 0.012975 µM ([1]; 12.975 nM, read-out: Inhibition (PDE9 dose-response, single runs)): 4.99%; Inhibition (PDE9 dose-response, single runs) ([1]; 25.95 nM, 0.02595 µM): 11.54%; inhibition at 0.02595 µM ([1]; 25.95 nM, read-out: Inhibition (PDE9 dose-response, single runs)): 16.6%; Inhibition (PDE9 dose-response, single runs) ([1]; 51.9 nM, 0.0519 µM): 21.64%; inhibition at 0.0519 µM ([1]; 51.9 nM, read-out: Inhibition (PDE9 dose-response, single runs)): 20.2%; Inhibition (PDE9 dose-response, single runs) ([1]; 103.8 nM, 0.1038 µM): 34.81%; inhibition at 0.1038 µM ([1]; 103.8 nM, read-out: Inhibition (PDE9 dose-response, single runs)): 33.4%; Inhibition (PDE9 dose-response, single runs) ([1]; 207.6 nM, 0.2076 µM): 49.32%; inhibition at 0.2076 µM ([1]; 207.6 nM, read-out: Inhibition (PDE9 dose-response, single runs)): 54.3%; Inhibition (PDE9 dose-response, single runs) ([1]; 415.2 nM, 0.4152 µM): 80.76%; inhibition at 0.4152 µM ([1]; 415.2 nM, read-out: Inhibition (PDE9 dose-response, single runs)): 86.5%; Inhibition (PDE9 dose-response, single runs) ([1]; 830.4 nM, 0.8304 µM): 88.96%; inhibition at 0.8304 µM ([1]; 830.4 nM, read-out: Inhibition (PDE9 dose-response, single runs)): 93%
